Experimental data from US20150030566A1, “ANTIMICROBIAL PEPTIDE COMPOSITIONS FOR PLANTS” (Stellenbosch University, priority 2012, published 2015).
Values after ≈ are worked out from the molar mass of the structure shown. Residues, ends and D or L forms follow the SMILES beside them.

Experiments:
[1] = test system: bacteria; experiment: Sterilization of field-gathered grapevine material, antibacterial efficacy; type: in vivo; conditions: selected cases
Procedure: (§1) The Trc mix and GS were also tested for use in the sterilization of field-gathered grapevine material for use in plant cultures.

[2] = test system: Escherichia coli HB101; experiment: Microdilution broth assay; type: cell-based; set-up: unit not given beside the values
Procedure: (§2) Microdilution broth and agar assays were used to assess the antifungal activity of the cyclic decapeptides in liquid media and on solid (gel) media, respectively.
(§3) The antibacterial activity of the tyrocidines and gramicidin S against all the bacteria tested was determined by the methods described by Du Toit E A and Rautenbach M (2000) J. Microbiol. Methods, 42, 159-165. The antifungal activity of the tyrocidines against all the […] tested was determined by the methods described by Troskie A M, Vlok N M and Rautenbach M (2012) J. Microbiol. Methods, 91, 551-558.

[3] = test system: Bacillus subtilis OKB120; experiment: Microdilution broth assay; type: cell-based; set-up: unit not given beside the values
Procedure: as §2, §3

[4] = test system: Talaromyces mineoluteus (peach isolate); experiment: Microdilution broth assay; type: cell-based; set-up: unit not given beside the values
Procedure: as §2, §3

[5] = test system: African daisy (Gerbera hybrid); experiment: Cut flower trials, Gerbera; type: in vivo; conditions: GS at 35 mg/L alone or in the GS+Trc mix
Procedure: Water uptake was initially better than observed for a commercial product for cut-flower preservation (FIG. 4A).
Cut flower trials on mini hybrids of the African daisy (Gerbera hybrid) and blue larkspur (Delphinium hybrid) were conducted on 3-day old flowers. Flowers were prepared by cutting 3-5 cm of each stem and each placed separately in a measuring flask with 100 mL containing either no additive, Trc mix (35 mg/L for Gerbera and 25 mg/l for Delphinium), GS (35 mg/L for Gerbera and 25 mg/L for Delphinium), Trc mix+GS (combined 70 mg/L for Gerbera and combined 50 mg/L for Delphinium) or commercial additive for flower preservation. Flowers (6-12 per trial) were kept in a room with both natural and fluorescent lighting (16 hours light/day) at 22±1° C. The volume of water was monitored every 24 hours and noted for each flower.
Flower condition was rated from 0 to 5, with 0=dead, 1=flower petals dehydrated, closed and drooping, 2=flower still partially open but dehydrated and drooping, 3=flower starts drooping, petals soft, 4=some petals becoming soft, flower still in good condition and 5=flower is in pristine condition with taught petals and stem/leaves.

[6] = test system: fungal pathogens; experiment: Sterilization of field-gathered grapevine material for plant cultures; type: in vivo; conditions: in the washing step or in the growth media; without a major detrimental effect to the plant material; results not shown
Procedure: as §1

[7] = test system: Cylindrocarpon; experiment: Hydration tank assay, spore viability; type: cell-based
Procedure: (§4) This loss of activity in solution was, however, overcome by increasing the Trx mix concentration to 20 mg/L. It must also be emphasized that the Trc mix activity was tested at 10 times (10^7 spores/L) the spore concentration used for the testing of commercial fungicides and at 100 times the spore concentration usually observed in contaminated grapevine material (personal communication with the Department of Plant pathology, Stellenbosch University).
(§5) The activities of the GS and Trc mix were also assessed in the presence of and absence of grapevine stem material in a simulated hydration tank environment. Each 5.0 mL assay contained fungal spores at 10 000 spores/mL, peptide at 10 and 20 μg/mL and grapevine stem material. Grapevine stem material was washed with 70% ethanol and rinsed with sterile water before placement in inoculated hydration tanks, whereafter the Trc mix was added. Controls contained either the peptide or grapevine stem material. The assays were incubated at room temperature for 16 hours, whereafter three 100 μl aliquots of each assay were plated on PDA agar and allowed to grow for three days at 25° C. Some plates were stained with Coomassie brilliant blue stain (0.025% Coomassie, 12.5% isopropanol and 10% acetic acid) for better visualization of the fungal colonies. The number of colonies that developed after three days was recorded and expressed as percentage viable spores after comparing to the control samples which contained no peptide.

[8] = test system: Phomopsis; experiment: Hydration tank assay, spore viability; type: cell-based; conditions: 10 μg/ml peptide
Procedure: as §4, §5

[9] = test system: Phaeoacremonium; experiment: Hydration tank assay, spore viability; type: cell-based
Procedure: as §4, §5

[10] = test system: Escherichia coli HB101; experiment: Agar assay; type: cell-based; set-up: unit not given beside the values
Procedure: as §2, §3

[11] = test system: Cylindrocarpon liriodendri; experiment: Agar assay; type: cell-based; set-up: unit not given beside the values
Procedure: as §2, §3

[12] = test system: Phomopsis viticola; experiment: Agar assay; type: cell-based; set-up: unit not given beside the values
Procedure: as §2, §3

[13] = test system: Micrococcus luteus NCTG 8340; experiment: Agar assay; type: cell-based; set-up: unit not given beside the values
Procedure: as §2, §3

[14] = test system: Talaromyces ramulosus (peach isolate); experiment: Agar assay; type: cell-based; set-up: unit not given beside the values
Procedure: as §2, §3

[15] = test system: Grapevine tissue culture plants; experiment: Plant culture assay, growth and development of plantlets; type: in vivo; conditions: 15 mg/L in MS medium
Procedure: as §1
(§6) Grapevine tissue culture plants were transferred to MS medium containing GS or Trc mix at a concentration of 15 μg/mL and incubated at 25° C. with a 16 h/8 h day night cycle. The growth and development of the grapevine plantlets were monitored and compared to the control set of plants which were maintained on MS-medium without GS or Trc mix.

[16] = test system: Fusarium solani; experiment: Microdilution broth assay; type: cell-based; set-up: MIC against F. solani in PDB (n): unit not given beside the values
Procedure: as §2, §3

[17] = test system: fungal pathogens; experiment: Plant culture assay, fungal pathogens in growth media; type: in vivo; conditions: without a major detrimental effect to the plant material
Procedure: as §1, §6

[18] = test system: Penicillium digitatum (citrus isolate); experiment: Agar assay; type: cell-based
Procedure: as §2, §3

[19] = test system: Phaeoacremonium aleophilum; experiment: Agar assay; type: cell-based
Procedure: as §2, §3

[20] = test system: Fusarium solani; experiment: Agar (gel) assay; type: cell-based
Procedure: as §2, §3

[21] = test system: Botrytis cinerea; experiment: Agar (gel) assay; type: cell-based; set-up: MIC + SEM: unit not given beside the values
Procedure: as §2, §3

Question: How did the antibacterial efficacy [1] turn out when `CC(C)C[C@@H]1NC(=O)[C@H](CCCN)NC(=O)[C@H](C(C)C)NC(=O)C2CCCN2C(=O)[C@@H](Cc2ccccc2)NC(=O)[C@H](CC(C)C)NC(=O)[C@H](CCCN)NC(=O)[C@H](C(C)C)NC(=O)C2CCCN2C(=O)[C@@H](Cc2ccccc2)NC1=O` (stereo partly drawn) [GS, Cyclo-(VOLfPVOLfP)] (HELM PEPTIDE1{L.[dF].[O=C(C1CCCN1[*:1])[*:2]].V.[Orn].L.[dF].[O=C(C1CCCN1[*:1])[*:2]].V.[Orn]}$PEPTIDE1,PEPTIDE1,1:R1-10:R2$$$V2.0) was run?
Answer: good antibacterial activity

Question: And the “MIC + SEM” value [2]?
Answer: 44

Question: What about the “MIC + SEM” value [3] of the same molecule?
Answer: 8-14

Question: And the “MIC + SEM” value [4]?
Answer: 4.2 ± 0.2

Question: What about the “benefit to flower survival” value [5] of the same molecule?
Answer: did not benefit flower survival

Question: What about the phytotoxicity [5] of the same molecule?
Answer: may have led to some phytotoxicity

Question: And the “concentration sufficient to eliminate fungal pathogens” value [6]?
Answer: 20 mg/L

Question: And the “percentage viable spores compared to the growth/survival controls” value ([7]; +gvs, 10 μg/ml peptide)?
Answer: 0%

Question: And the “percentage viable spores compared to the growth/survival controls” value ([7]; +gvs, 20 μg/ml peptide)?
Answer: 0%

Question: And the “percentage viable spores compared to the growth/survival controls” value ([7]; −gvs, 10 μg/ml peptide)?
Answer: 0%

Question: What about the “percentage viable spores compared to the growth/survival controls” value ([7]; −gvs, 20 μg/ml peptide) of the same molecule?
Answer: 0%

Question: What about the “percentage viable spores compared to the growth/survival controls” value ([8]; +gvs) of the same molecule?
Answer: 0%

Question: And the “percentage viable spores compared to the growth/survival controls” value ([8]; −gvs)?
Answer: 0%

Question: And the “percentage viable spores compared to the growth/survival controls” value ([9]; +gvs, 10 μg/ml peptide)?
Answer: 0%

Question: What about the “percentage viable spores compared to the growth/survival controls” value ([9]; +gvs, 20 μg/ml peptide) of the same molecule?
Answer: 0%

Question: What about the “percentage viable spores compared to the growth/survival controls” value ([9]; −gvs, 10 μg/ml peptide) of the same molecule?
Answer: 0%

Question: What about the “percentage viable spores compared to the growth/survival controls” value ([9]; −gvs, 20 μg/ml peptide) of the same molecule?
Answer: 0%

Question: And the “MIC + SEM” value [10]?
Answer: 40

Question: What about the “MIC + SEM” value [11] of the same molecule?
Answer: <10

Question: And the “MIC + SEM” value [12]?
Answer: <10

Question: And the “MIC + SEM” value [13]?
Answer: 6

Question: What about the “MIC + SEM” value [14] of the same molecule?
Answer: 3.6 ± 0.3

Question: What about the “effect on root growth” value [15] of the same molecule?
Answer: root growth was visibly affected

Question: And the “effect on plant culture survival and growth” value ([15]; vs control plants)?
Answer: enhanced plant culture survival and foliage growth

Question: And the “MIC + SEM” value ([16]; Broth, Fusarium solani)?
Answer: 2.5 ± 0.1

Question: And the “MIC against F. solani in PDB (n)” value ([16]; potato dextrose broth (low salt PDB))?
Answer: 2.2 ± 0.1

Question: What about the “concentration sufficient to eliminate fungal pathogens in the growth media” value [17] of the same molecule?
Answer: 15 mg/L

Question: What about the “MIC + SEM” value [18] of the same molecule?
Answer: <20

Question: And the “MIC + SEM” value [19]?
Answer: <10

Question: What about the “MIC + SEM” value ([20]; Agar, Fusarium solani) of the same molecule?
Answer: 5.5 ± 1.3

Question: What about the “IC50 ± SEM” value ([20]; F. solani on PDA) of the same molecule?
Answer: 4.9 ± 1.2 µg/mL (≈ 4.29 µM)

Question: What about the “MIC ± SEM” value ([20]; F. solani on PDA) of the same molecule?
Answer: 6.3 ± 1.5 µg/mL (≈ 5.52 µM)

Question: What about the “IC50 ± SEM” value ([20]; F. solani on YTSA) of the same molecule?
Answer: 9.6 ± 0.5 µg/mL (≈ 8.41 µM)

Question: And the “MIC ± SEM” value ([20]; F. solani on YTSA)?
Answer: 19.9 ± 1.2 µg/mL (≈ 17.4 µM)

Question: And the “MIC + SEM” value ([21]; Agar, Botrytis cinerea)?
Answer: 2.5 ± 0.3

Question: And the “IC50 ± SEM” value ([21]; B. cinerea on PDA)?
Answer: 2.0 ± 0.3 µg/mL

Question: And the “MIC ± SEM” value ([21]; B. cinerea on PDA)?
Answer: 2.8 ± 0.3 µg/mL

Question: What about the “IC50 ± SEM” value ([21]; B. cinerea on YTSA) of the same molecule?
Answer: 4.5 ± 1.1 µg/mL

Question: What about the “MIC ± SEM” value ([21]; B. cinerea on YTSA) of the same molecule?
Answer: 8.2 ± 1.8 µg/mL
